Source: patent US7217534B2, “Methods of screening apoptosis modulating compounds, compounds identified by said methods and use of said compounds as therapeutic agents” (Institut Pasteur, priority 2002, dated 2007)

How the values were obtained:
[1] = system: IL-4-stimulated cells (TS1αβ murine T cell line); test: Apoptosis by cell cycle analysis (sub-G1 region, propidium iodide flow cytometry); format: cell-based
Protocol: (§1) A) IL-4-stimulated cells were serum-starved for 30 min and then treated with or without 10 mM M-β-CD for 30 min at 37° C. before incubation with CTx-FITC and anti-Bad or anti-Lck antibodies, followed by Cy3-labeled secondary antibody. Then, cells were analyzed by confocal microscopy. Similar results were obtained in two independent experiments. Single confocal sections show green (FITC) and red (Cy3) fluorescence. B) IL-4-stimulated cells were serum-starved for 30 min and then treated with or without 10 mM M-β-CD for 30 min at 37° C., then washed and transferred to complete medium supplemented with IL-4. At different times, apoptosis was measured. Sub G1 region of the fluorescence scale was used to determine the percentage of cells present in the initial step of apoptosis. Similar results were obtained in two independent experiments. White bars, control cells; grey bars, M-β-CD-treated cells.
(§2) TS1αβ is a murine T cell line that can be propagated independently in IL-2, IL-4 or IL-9 Cells were cultured in RPMI-1640 as previously described (Pitton et al., 1993, Cytokine 5, 362–371). Murine rIL-4 or supernatant of a HeLa subline transfected with PKCRIL-4.neo was used as a source of murine IL-4. Fluorescein isothiocyanate (FITC-)-labeled cholera toxin (CTx) B subunit, CTx-Biotin and methyl-β-cyclodextrin (M-β-CD) were obtained from Sigma-Aldrich (St. Louis, Mo.). Cy3- and Cy2-conjugated secondary antibodies were purchased from Molecular Probes (Eugene, Oreg.). Anti-mitochondria serum (mito 2813, pyruvate dehydrogenase) was a gift from Dr A. Serrano (CNB, Madrid, Spain).
A total of 2×10^5 IL-4-stimulated cells treated with or without M-β-CD were washed, resuspended in PBS, permeabilized with 0.1% Nonidet P-40 and stained with 50 μg/ml propidium iodide (PI). At different times, samples were analyzed using a EpicsXL flow cytometer (Coulter, Hialeah, Fla.). Apoptosis was measured as the percentage of cells in the sub-G1 region of the fluorescence scale having an hypodiploid DNA content.
Given that exclusion of Bad from rafts was also observed in apoptotic IL-4-deprived cells (FIG. 3A), it was analyzed whether Bad association to rafts and its integrity was necessary for prevention of apoptosis. For this purpose, IL-4-stimulated cells were treated for 30 min with or without M-β-CD in serum-free medium, then washed, resuspended in IL-4-supplemented complete medium and analyzed for induction of apoptosis at different times (FIG. 4B). […] Eight hours upon treatment, the amount of apoptotic cells detected in treated and non treated cells were similar because addition of serum restores the lipid composition of the membrane.

[2] = system: IL-4-stimulated cells (TS1αβ murine T cell line); test: Cholesterol depletion, raft association of Bad and Lck by CTx-FITC confocal microscopy; format: cell-based; settings: 10 mM, 30 min, 37° C., serum-free medium
Protocol: as §1, with “cells. […]” for “cells.”
IL-4-stimulated or -deprived cells were fixed with 1% paraformaidehyde for 5 min on ice, permeabilized and then incubated with CTx-FITC (20 min, 6 μg/ml) and anti-Bad antibody for 1 h in PBS-BSA. […] Finally, and after several washing steps, cells were incubated with methanol at −20° C. for 10 min, mounted wiht Vectashield medium, and analyzed by confocal microscopy. The program used for quantification of samples was Leica TSC NT version 1.5.451 (Leica, Lasertechnik, Heidelberg, Germany). […]

Bad = test: Serine phosphorylation of Bad by immunoprecipitation and western blot; format: cell-based, murine; settings: anti-Bad serine 136, 112 and 155 blots, IL-4-stimulated cells
Text: A) Cytoplasmic extracts from IL-4-stimulated or -deprived cells were immunoprecipitated with anti-Bad antibody and blotted with anti-Bad serine 136, 112 and 155. As internal control, the blot was developed with anti-Bad. Positive control for serine 112 and 136 phosphorylation, IL-2-stimulated cells; positive control for serine 155 phosphorylation of Bad, Bad-transfected COS cells (C). […] Molecular weight of the corresponding proteins is shown.
as §2, with “Spain). […]” for “Spain).”
Posttranslational modifications of Bad such as phosphorylation, and its role in Bad localization in rafts or mitochondria was further analyzed. […]

## methyl-β-cyclodextrin [M-β-CD]
[1]; 30 min treatment in serum-free medium, then IL-4-supplemented complete medium
  time of highest level of apoptosis after treatment: 5 h
[1]; 30 min treatment in serum-free medium, then IL-4-supplemented complete medium, different times
  level of apoptosis compared with control non treated cells: stronger level of apoptosis
[1]; eight hours upon treatment, serum added back
  amount of apoptotic cells in treated and non treated cells: similar
[2]
  raft formation and association of Lck and Bad with rafts: severe disruption of raft formation and association of Lck and Bad with rafts

B1: IL-4: Murine rIL-4 or supernatant of a HeLa subline transfected with PKCRIL-4.neo, used as source of murine IL-4 (protein, UniProt P07750 21-140, looked up)
Interleukin-4: HIHGCDKNHLREIIGILNEVTGEGTPCTEMDVPNVLTATKNTTESELVCRASKVLRIFYLKHGKTPCLKKNSSVLMELQRLFRAFRCLDSSISCTMNESKSTSLKDFLESLKSIMQMDYS
[1]; control IL-4-stimulated cells versus IL-4-deprived cells, 4 h to 24 h
  level of apoptosis in IL-4-stimulated cells: no significant level of apoptosis
Bad
  serine phosphorylation of Bad: induces serine 136 phosphorylation of Bad, but not serine 112 and 155
